Data as given in US11427569B2, “Benzoimidazole indolyl methanes and methods of using them to inhibit PCKS9 and PCKS9-mediated ailments” (Wisconsin Alumni Research Foundation, priority 2019, dated 2022).
Several values for one entry are separate records, joined by “and”; a condition that tells them apart may be missing. Equal entries are not always repeated.

Molecular target: T1, PCSK9 (Homo sapiens, UniProt Q8NBP7)
T1 construct: endogenous in cells; host or cells: HepG2 (ATCC HB-8065)
Experiment: ELISA of secreted (extracellular, medium) PCSK9 in HepG2 cells
Format: cell-based
Settings: for Activity at 1 μM (% of remaining PCSK9): 1 μM compound; for Activity at 1 μM (% of remaining PCSK9) / Activity at 10 μM (% of remaining PCSK9): HepG2 cells, DMSO = 100%; for Activity at 10 μM (% of remaining PCSK9): 10 μM compound; for IC50: dose-response curves, extracellular PCSK9, cultured HepG2 cells (FIG. 4)
Procedure: The human hepatoma cell line, HepG2, was cultured and maintained in low glucose Dulbecco's modified Eagle's medium (DMEM) supplemented with 10% fetal bovine serum (FBS) and 1% penicillin, streptomycin solution. (ATCC HB-8065, American Type Culture Collection, Manassas, Va.) The medium was further supplemented with 1% each of nonessential amino acids (NEAA), sodium pyruvate and L-glutamine.
Freshly cultured HepG2 cells were harvested from vacuum gas plasma-treated T75 cell culture flasks and plated onto vacuum gas plasma-treated clear 12 or 96 well plates (Fisher Scientific, Waltham, Mass. catalog nos. 353072 and 353043, respectively) at 70% confluent in 1000 μl/well or 200 μl/well of growth medium respectively. Cell plates were incubated overnight at 37° C. and 5% CO2 prior to compound treatment. For screening experiments, compounds at an initial concentration of 20 mM in 100% DMSO were diluted to different concentrations in growth medium.
For the generation of dose-response curves, compounds at an initial concentration of 20 mM in 100% DMSO were diluted to 30 μM in growth medium. The 30 μM solutions were then serially diluted 10-fold to achieve final concentration of 30 μM, 3 μM, 0.3 μM, 0.03 μM, and 0.003 μM in assay medium. Growth medium was aspirated from the plated cells and medium containing compound was added to the appropriate well. Cells were allowed to incubate for 24 h or 48 h at 37° C. and 5% CO2. Medium was collected from cells and centrifuged at 14,000 rpm for five min. The upper 50% of spun medium was collected and frozen for later analysis. The remaining cells were washed twice with 1000 μl/well or 200 μl/well cold phosphate buffered saline (PBS) at pH 7.4 and placed on ice. Cells were treated with 100 μl/well or 60 μl/well of lysis buffer comprised of 50 mM Tris, pH 8; 1% NP-40; 150 mM NaCl; 1 mM EDTA (purchased from Cell Signaling Technology, Inc., Danvers, Mass., catalog no. 9803) containing 1 mM phenylmethane sulfonyl fluoride (PMSF) and Roche protease inhibitor cocktail (available from Sigma-Aldrich, St. Louis, Mo.). Cells were allowed to incubate in lysis buffer on ice for 30 min. Cells were then collected and frozen overnight. Cells were centrifuged the next day at 14,000 rpm for 15 min. The supernatant was collected and analyzed for total protein or PCSK9 concentration.
Inhibition of secreted PCSK9 was measured in human hepatocellular carcinoma (HepG2) cells using a PCSK9 Quantikine®-brand ELISA kit purchased from R&D Systems, a wholly owned subsidiary of Bio-Techne Corporation, Minneapolis, Minn. (“Human Proprotein Convertase 9/PCSK9 Quantikine® ELISA Kit,” catalog #DPC900). The protocol provided in the kit was followed. Briefly, PCSK9 standards were prepared according to the instructions provided with the kit at final concentrations of 40 ng/mL, 20 ng/mL, 10 ng/mL, 5 ng/mL, 2.5 ng/mL, 1.25 ng/mL, 0.625 ng/mL and 0 ng/mL. The ELISA was conducted with the provided capture antibody-coated 96-well plate. Assay diluent was added to all relevant wells at a volume of 100 μL. 50 μL of sample (medium or cell lysate) or PCSK9 standard (in duplicate) was then added to the appropriate well. The plate was allowed to incubate for 2 h at room temperature. All wells were aspirated and washed four times with 300 μl of wash buffer. After washing, 200 μL of anti-PCSK9-HRP conjugate was added to all wells and the plate was allowed to incubate at room temperature for 2 h. After incubation all wells were aspirated and washed again four times with 300 μL of washing buffer.
After washing was completed, 200 μL of freshly prepared colorimetric reagent was added to all wells and the plate was incubated at room temperature in the dark for 30 min. After this final incubation a stop solution of 1N sulfuric acid was added to all wells, at which point absorbance was measured using a Tecan Infinite M1000 microplate reader at a wavelength of 450 nm (background absorbance was corrected by subtracting the absorbance measured at 540 nm). […]

T1 sequence (Q8NBP7 153-692): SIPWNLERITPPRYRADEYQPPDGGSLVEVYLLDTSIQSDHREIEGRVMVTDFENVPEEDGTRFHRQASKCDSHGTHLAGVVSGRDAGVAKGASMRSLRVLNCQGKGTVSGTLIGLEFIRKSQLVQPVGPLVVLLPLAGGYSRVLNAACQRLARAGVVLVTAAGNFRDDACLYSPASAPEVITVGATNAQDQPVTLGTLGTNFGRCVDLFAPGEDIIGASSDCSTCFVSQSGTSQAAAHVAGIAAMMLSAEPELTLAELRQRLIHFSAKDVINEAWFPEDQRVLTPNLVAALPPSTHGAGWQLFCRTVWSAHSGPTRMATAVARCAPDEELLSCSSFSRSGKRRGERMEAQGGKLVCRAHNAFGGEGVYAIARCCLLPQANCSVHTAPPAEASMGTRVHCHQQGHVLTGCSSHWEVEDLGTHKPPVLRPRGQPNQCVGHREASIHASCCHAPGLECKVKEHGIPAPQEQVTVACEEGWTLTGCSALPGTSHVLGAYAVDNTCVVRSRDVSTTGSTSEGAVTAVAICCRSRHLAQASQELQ

| Structure (SMILES) | Activity at 1 μM (% of remaining PCSK9) | Activity at 10 μM (% of remaining PCSK9) | IC50 [nM] |
| --- | --- | --- | --- |
| COc1ccc2cc3[n+](cc2c1OC)CCc1cc2c(cc1-3)OCO2 [BBR, berberine, reference compound] | 88% and 69% | 54% and 51% |  |
| Fc1ccc2[nH]c(Cc3c[nH]c4c(F)cccc34)nc2c1 [HX81] | 46% and 40% |  |  |
| Fc1ccc2nc(Cc3c[nH]c4c(F)cccc34)n(Cc3ccccc3)c2c1 [HX178] | 75% | 31% |  |
| Fc1ccc2nc(Cc3c[nH]c4c(F)cccc34)n(CCc3ccccc3)c2c1 [HX179] | 62% | 48% |  |
| Fc1ccc2nc(Cc3c[nH]c4c(F)cccc34)n(Cc3ccncc3)c2c1 [HX181] | 60% | 33% |  |
| Fc1ccc2nc(Cc3c[nH]c4c(F)cccc34)n(Cc3cccnc3)c2c1 [HX182] | 86% | 89% |  |
| OCCn1c(Cc2c[nH]c3c(F)cccc23)nc2ccc(F)cc21 [HX183] | 70% | 27% |  |
| Cn1c(Cc2c[nH]c3c(F)cccc23)nc2ccc(F)cc21 [HX184] | 34% | 10% |  |
| CC(C)Cn1c(Cc2c[nH]c3c(F)cccc23)nc2ccc(F)cc21 [HX185] | 65% | 42% |  |

Other lines, results leading:

| Activity at 1 μM (% of remaining PCSK9) | Activity at 10 μM (% of remaining PCSK9) | IC50 [nM] | Structure (SMILES) |
| --- | --- | --- | --- |
| 84% | 73% |  | CC(C)(C)Cn1c(Cc2c[nH]c3c(F)cccc23)nc2ccc(F)cc21 [HX186] |
| 45% | 25% |  | [2H]C([2H])(c1nc2cc(F)ccc2[nH]1)c1c[nH]c2c(F)cccc12 [HX212] |
| 28% | 26% | 0.5 | O=C(c1nc2ccc(F)cc2[nH]1)c1c[nH]c2c(F)cccc12 [HX235] |
| 25% | 15% | 13 | O=C(c1cc2cc(F)ccc2[nH]1)c1c[nH]c2c(F)cccc12 [HX240] |
| 25% | 13% |  | O=C(c1cc2ccccc2[nH]1)c1c[nH]c2ccccc12 [HX257] |
| 20% | 14% |  | O=C(c1cc2ccccc2[nH]1)c1c[nH]c2c(F)cccc12 [HX258] |
| 28% | 13% |  | O=C(c1cc2cc(F)ccc2[nH]1)c1c[nH]c2ccccc12 [HX259] |
| 21% | 20% |  | Cn1c(C(=O)c2c[nH]c3c(F)cccc23)nc2ccc(F)cc21 [HX261] |
| 30% | 20% |  | O=C(c1nc2ccccc2[nH]1)c1c[nH]c2ccccc12 [HX262] |
| 27% | 21% |  | O=C(c1nc2ccccc2[nH]1)c1c[nH]c2c(F)cccc12 [MF025] |
| 59% and 50% | 17% and 13% | 44 | Fc1ccc2[nH]c(Cc3c[nH]c4c(F)cccc34)cc2c1 [compound 9577] |
